# Results: article PMC9311798, “A Novel Class of Potent Anti-Tyrosinase Compounds with Antioxidant Activity, 2-(Substituted phenyl)-5-(trifluoromethyl)benzo[d]thiazoles: In Vitro and In Silico Insights” (Antioxidants, 2022)
# Columns and labels:
# mushroom tyrosinase [1] = biological target: T1, mushroom tyrosinase (Agaricus bisporus, UniProt C7FF04); experiment: Mushroom tyrosinase inhibition assay; assay type: biochemical; details: L-DOPA as substrate
# T1 construct: purchased Sigma-Aldrich
# [2] = system: B16F10 murine melanoma cells; experiment: Extracellular melanin content (melanin release into medium) in α-MSH/IBMX-stimulated cells; assay type: cell-based
# Method: The anti-melanogenic activities of 1a and 1b were determined using a standard melanin content assay, with minor changes. Briefly, B16F10 cells were seeded in the wells of a 6-well plate at a density of 1 × 10^5 cells/well, and allowed to adhere to well bottoms over 24 h under the conditions used for cell culture (Section 2.3.5). […] Absorbances of culture media at 405 nm were used to determine extracellular melanin contents.
# mushroom tyrosinase [3] = biological target: T1, mushroom tyrosinase; experiment: Mushroom tyrosinase inhibition assay; assay type: biochemical; details: L-tyrosine as substrate
# Method: Mushroom tyrosinase inhibitory activity was determined as described previously, with minor modifications. L-Tyrosine was used as a substrate to determine enzyme activities. […] These dose-dependent inhibition experiments were carried out three times using three to five different concentrations of test compounds to determine IC50 values. Log–linear curves and their equations were derived from the observed percentages of inhibition.
# [4] = biological target: T2, cellular tyrosinase in B16F10 cells (Mus musculus, UniProt P11344); experiment: Cellular tyrosinase activity (L-DOPA oxidation) in α-MSH/IBMX-stimulated cells; assay type: cell-based, murine
# T2 construct: endogenous in cells; host or cells: B16F10 murine melanoma cells, stimulated with alpha-MSH and IBMX
# T2 sequence (P11344 19-533): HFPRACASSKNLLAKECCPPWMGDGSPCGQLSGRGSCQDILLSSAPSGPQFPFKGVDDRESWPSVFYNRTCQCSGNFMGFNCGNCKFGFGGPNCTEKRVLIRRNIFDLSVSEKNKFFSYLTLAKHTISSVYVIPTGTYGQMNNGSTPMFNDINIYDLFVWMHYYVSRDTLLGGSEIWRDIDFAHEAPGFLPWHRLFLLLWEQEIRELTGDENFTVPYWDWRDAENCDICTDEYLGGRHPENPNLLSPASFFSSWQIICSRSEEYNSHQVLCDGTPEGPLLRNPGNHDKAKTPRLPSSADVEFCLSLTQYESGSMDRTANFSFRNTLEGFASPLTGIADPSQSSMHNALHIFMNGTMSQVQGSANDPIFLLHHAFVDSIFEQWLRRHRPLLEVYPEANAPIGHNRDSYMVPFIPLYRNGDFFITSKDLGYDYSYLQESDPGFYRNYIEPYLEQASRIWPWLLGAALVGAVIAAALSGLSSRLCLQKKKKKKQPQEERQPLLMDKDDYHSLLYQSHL
# Method: Cellular tyrosinase activity was assessed by measuring the oxidation rate of L-DOPA as previously described, with minor modifications. In brief, B16F10 cells were seeded in a 6-well plate at 1 × 10^5 cells/well, and allowed to adhere to well bottoms for 24 h, as described in Section 2.3.5. […]. Cells were then rinsed twice with PBS, exposed to 100 µL of lysis buffer solution (90 µL of 50 mM phosphate buffer (pH 6.5), 5 µL of 2 mM PMSF, and 5 µL of 20% Triton X-100), and lysed at −80 °C for 30 min. After defrosting, cell lysates were transferred to microcentrifuge tubes and centrifuged at 12,000 rpm for 30 min at 4°C, and supernatants (80 µL) were mixed with 20 µL of L-DOPA (2 mg/mL) in a 96-well plate, and incubated for 10 min at 37 °C. Absorbances were measured at 475 nm using a microplate reader (VersaMax^TM, Molecular Devices, Sunnyvale, CA, USA).
# MITF in B16F10 cells = experiment: Western blot of nuclear MITF; assay type: cell-based, murine; details: nuclear fraction
# Method: Five different concentrations of 1b (0, 2, 5, 10, and 20 µM) were exposed to B16F10 cells for 48 h, and the cells were washed with cold PBS two times, harvested, lysed, and centrifuged at 4 °C (12,000 rpm for 10 min). Cell pellets were suspended in 10 mM Tris (pH 8.0) containing 1.5 mM MgCl2, 1 mM DTT, 0.1% NP-40, and protease inhibitors (GenDEPOT), incubated on ice for 15 min, and centrifuged at 12,000× g for 15 min at 4 °C. Supernatants (cytosolic fractions) and pellets were resuspended in 10 mM Tris (pH 8.0) containing 50 mM KCl, 100 mM NaCl, and protease inhibitor, incubated on ice for 30 min, and centrifuged at 12,000× g for 15 min at 4 °C. The resultant supernatants were nuclear fractions. The protein concentrations were determined by a Bicinchoninic Acid (BCA)™ Assay Kit (Pierce, Rockford, IL, USA). The lysed protein samples were mixed in loading buffer (0.2% bromophenol blue, 12.5 mM Tris-HCl, pH 6.8, 10% 2-mercaptoethanol, and 4% SDS) at a volume ratio of 1:4, and boiled for 10 min. […] Quantification of Western blot data were analyzed by CS Analyzer 3.2 (Densitograph) image software (http://www.attokorea.co.kr, admitted on 21 May 2022).
# [5] = system: B16F10 murine melanoma cells; experiment: Intracellular melanin content in α-MSH/IBMX-stimulated cells; assay type: cell-based
# Method: The cultured cells were rinsed with PBS twice and pellets were dissolved in 200 µL of 1N-NaOH solution containing 10% DMSO for 1 h at 60 °C. Cell lysates were then transferred to a 96-well plate, and the melanin absorbances were measured in aqueous DMSO at 405 nm using a microplate reader (VersaMax^TM, Molecular Devices, Sunnyvale, CA, USA).
# [6] = 10 µM, compared with kojic acid 20 µM
# T1 sequence (C7FF04 1-392 limits assumed): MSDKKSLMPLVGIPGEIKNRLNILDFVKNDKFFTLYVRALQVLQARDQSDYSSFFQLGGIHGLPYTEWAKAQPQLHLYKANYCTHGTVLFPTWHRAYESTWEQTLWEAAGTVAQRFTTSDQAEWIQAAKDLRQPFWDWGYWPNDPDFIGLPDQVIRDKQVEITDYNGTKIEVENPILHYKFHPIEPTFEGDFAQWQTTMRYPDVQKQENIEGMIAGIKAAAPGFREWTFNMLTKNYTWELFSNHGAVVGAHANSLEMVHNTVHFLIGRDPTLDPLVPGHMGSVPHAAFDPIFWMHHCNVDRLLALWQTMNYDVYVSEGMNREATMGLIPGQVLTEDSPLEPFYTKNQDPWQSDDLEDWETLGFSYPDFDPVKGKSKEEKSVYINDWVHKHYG
smiles,measurement,setting,value
"Oc1ccc(-c2nc3cc(C(F)(F)F)ccc3s2)c(O)c1 [Compound 1b, 4-(5-(Trifluoromethyl)benzo[d]thiazol-2-yl)benzene-1,3-diol]",IC50,mushroom tyrosinase [1],1.7 ± 0.11 µM
same,melanin release,[2]; 20 µM,reduced melanin release to control levels
same,effect on melanin content in media,"[2]; 5, 10, 20 µM, α-MSH (1 µM) + IBMX (200 µM), 48 h",concentration-dependently and significantly reduced melanin content increases
same,IC50,mushroom tyrosinase [3],0.2 ± 0.01 µM
same,potency relative to kojic acid (fold more potent),mushroom tyrosinase [3]; IC50 versus kojic acid,55 fold
same,increase of anti-tyrosinase activity relative to 1a,mushroom tyrosinase [3]; versus 1a,240 fold
same,cellular tyrosinase activity,[4]; [6],reduced tyrosinase activity to that achieved by 20 µM kojic acid
same,cellular tyrosinase activity,[4]; 20 µM,reduced tyrosinase activity to the untreated control level
same,effect on cellular tyrosinase activity,"[4]; 5, 10, 20 µM, IBMX + α-MSH, 48 h",significantly and concentration-dependently suppressed
same,MITF protein levels,MITF in B16F10 cells; high concentrations (10–20 µM),significantly and dose-dependently reduced MITF protein levels
same,MITF protein levels,MITF in B16F10 cells; low concentrations (2–5 μM),MITF protein levels increased
same,inhibition of α-MSH/IBMX-induced intracellular melanin increase,[5]; [6],more potently inhibited α-MSH/IBMX-induced increases in melanin than kojic acid at 20 µM
same,"intracellular melanin content, lower than untreated control group","[5]; 20 µM, α-MSH/IBMX co-treated cells",20%
same,effect on intracellular melanin content,"[5]; 5, 10, 20 µM, α-MSH + IBMX, 48 h",significantly and concentration-dependently reduced intracellular melanin increases
